The structures appear in SMILES notation. Calls of active or inactive are those of the source. No cut-off for these calls is given here.

Assay [1] has as its target T1, Peroxisome proliferator-activated receptor alpha (Homo sapiens) (UniProt Q07869).
T1 sequence (whole entry): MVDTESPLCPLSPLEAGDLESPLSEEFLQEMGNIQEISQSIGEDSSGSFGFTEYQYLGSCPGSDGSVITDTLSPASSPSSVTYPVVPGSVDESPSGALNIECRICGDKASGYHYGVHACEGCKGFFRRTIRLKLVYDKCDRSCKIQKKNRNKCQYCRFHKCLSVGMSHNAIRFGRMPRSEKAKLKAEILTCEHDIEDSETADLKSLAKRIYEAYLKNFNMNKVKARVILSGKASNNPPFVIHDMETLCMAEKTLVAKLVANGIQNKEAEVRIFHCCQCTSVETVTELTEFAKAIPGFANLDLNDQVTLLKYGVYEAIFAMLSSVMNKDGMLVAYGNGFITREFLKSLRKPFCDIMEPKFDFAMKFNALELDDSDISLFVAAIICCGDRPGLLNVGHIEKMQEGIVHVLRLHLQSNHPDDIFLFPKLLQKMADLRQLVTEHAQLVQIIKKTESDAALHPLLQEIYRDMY
The assay can be described thus: Agonist activity at human PPARalpha expressed in CHO cells co-transfected with pGL3-PPRE3-TK-luc assessed as transactivation at 20 ug/ml after 24 hrs by firefly luciferase reporter gene assay. In kind it is functional, cell-based. On the technique in general: A reporter such as luciferase makes a cellular process visible.

Assay [2] deals with T2, Peroxisome proliferator-activated receptor gamma (Homo sapiens, UniProt P37231).
T2 sequence (P37231 whole entry): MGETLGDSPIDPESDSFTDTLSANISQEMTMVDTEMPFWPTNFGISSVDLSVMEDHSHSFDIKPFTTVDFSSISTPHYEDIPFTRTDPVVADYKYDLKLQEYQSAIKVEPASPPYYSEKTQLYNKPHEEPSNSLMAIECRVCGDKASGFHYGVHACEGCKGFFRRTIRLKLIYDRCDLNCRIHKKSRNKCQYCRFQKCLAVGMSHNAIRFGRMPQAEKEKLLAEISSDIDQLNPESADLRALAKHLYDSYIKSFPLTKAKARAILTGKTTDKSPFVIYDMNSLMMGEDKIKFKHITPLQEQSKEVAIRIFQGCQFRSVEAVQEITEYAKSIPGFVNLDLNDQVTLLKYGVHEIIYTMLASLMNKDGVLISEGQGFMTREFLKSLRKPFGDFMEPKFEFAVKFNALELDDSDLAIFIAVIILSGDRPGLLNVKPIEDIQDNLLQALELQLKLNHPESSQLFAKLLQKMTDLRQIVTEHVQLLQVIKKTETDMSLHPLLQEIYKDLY
The assay is described as follows: Agonist activity at human PPARgamma expressed in CHO cells co-transfected with pGL3-PPRE3-TK-luc assessed as transactivation after 24 hrs by firefly luciferase reporter gene assay. In kind it is functional, cell-based.

Assay [3] concerns the target T3, Peroxisome proliferator-activated receptor delta (Homo sapiens) (UniProt Q03181).
T3 sequence (whole entry): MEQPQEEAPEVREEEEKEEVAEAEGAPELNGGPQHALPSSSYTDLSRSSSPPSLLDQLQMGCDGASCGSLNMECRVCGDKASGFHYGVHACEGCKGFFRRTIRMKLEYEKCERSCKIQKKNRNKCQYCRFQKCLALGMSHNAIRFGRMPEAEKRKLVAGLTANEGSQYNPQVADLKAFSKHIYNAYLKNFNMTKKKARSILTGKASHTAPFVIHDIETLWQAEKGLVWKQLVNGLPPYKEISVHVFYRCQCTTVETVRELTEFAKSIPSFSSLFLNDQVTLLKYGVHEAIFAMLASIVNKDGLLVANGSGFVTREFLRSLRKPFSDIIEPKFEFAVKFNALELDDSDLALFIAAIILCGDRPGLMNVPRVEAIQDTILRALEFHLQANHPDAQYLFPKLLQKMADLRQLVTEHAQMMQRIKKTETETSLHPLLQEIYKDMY
The assay is described as follows: Agonist activity at human PPARdelta expressed in CHO cells co-transfected with pGL3-PPRE3-TK-luc assessed as transactivation at 20 ug/ml after 24 hrs by firefly luciferase reporter gene assay. In kind it is functional, cell-based.

Assay [4] concerns the target T4, Peroxisome proliferator-activated receptor gamma (Homo sapiens) (UniProt P37231).
T4 sequence (whole entry): T2 sequence (P37231 whole entry)
The assay is described as follows: Agonist activity at PPARgamma in human HepG2 cells assessed as up-regulation of SCD-1 at 0.5 to 12.5 uM by real-time PCR method. In kind it is functional, cell-based. For orientation: Quantitative PCR measures a nucleic acid by following its amplification.

The subject of assay [5] is HepG2. The assay is described as follows: Upregulation of PPARgamma in human HepG2 cells by real-time PCR method. The format is functional, cell-based.
Assay [6] concerns HepG2. The assay is described as follows: Upregulation of PPARgamma in human HepG2 cells t 0.5 to 12.5 uM by real-time PCR method relative to control. The format is functional.

Turning to `CCC/C=C\C#C/C=C/C(O)CCCCCCCC(=O)O` (centres undefined), the result in assay [1] and in assay [3] was inactive. In assay [2], the EC50 is more than 68400 nM.
Consider `CCC/C=C\C#C/C=C/C(=O)CCCCCCCC(=O)O`, for which the result in assay [1], in assay [4] and in assay [3] was inactive. Also, the EC50 in assay [2] came to 1880 nM. In addition, the Activity entry in assay [5] is “Dose-dependent effect”. The “fold change (FC)” value in assay [6] turned out to be 2.43.

As a reminder, the EC50 is the concentration that produces a half-maximal response.
